Results: DBAASP
≈ marks a conversion by molar mass, not a printed value. Where “and” joins values, the source holds several entries; their conditions need not be identical. Equal values may be shown once.

Assays:
Test in all cases: ≥ marks a high value that may be exact or a test limit, other limits are often not marked, values filed in µg/mL are converted to µM
[1] = test system: Escherichia coli ARLG-1012
[2] = test system: Klebsiella aerogenes St. L P63
Escherichia coli BW25113 = test system: Escherichia coli BW25113
[3] = test system: Enterobacter cloacae St. L P23
[4] = test system: Enterobacter asburiae St. L P23
[5] = test system: Pseudomonas aeruginosa ATCC 27853
[6] = test system: Enterobacter cloacae BB2012-181
[7] = test system: Acinetobacter baumannii Josh 230
[8] = test system: Pseudomonas aeruginosa J4228
[9] = test system: Enterobacter cloacae BB2013-32
[10] = test system: Escherichia coli BB2013-30
[11] = test system: Klebsiella pneumoniae J3702
[12] = test system: Klebsiella pneumoniae BB2009-209
[13] = test system: Klebsiella pneumoniae Oschner KP-1
[14] = test system: Acinetobacter baumannii Josh 28
Escherichia coli JW55034 = test system: Escherichia coli JW55034
[15] = test system: Pseudomonas aeruginosa BB2013-100
[16] = test system: Escherichia coli ATCC 25922
[17] = test system: Acinetobacter baumannii ATCC BAA-747
[18] = test system: Staphylococcus aureus ATCC 33592
[19] = test system: Staphylococcus epidermidis ATCC 12228
[20] = test system: Aeromonas hydrophila Rt-6
[21] = test system: Candida albicans ATCC 10231
[22] = test system: Enterococcus faecalis ATCC 29212
Acinetobacter junii RT-4 = test system: Acinetobacter junii RT-4
Bacillus megaterium Bm11 = test system: Bacillus megaterium Bm11
[23] = test system: Pseudomonas aeruginosa ATCC 15692
[24] = test system: Staphylococcus aureus ATCC 29213
[25] = test system: Staphylococcus aureus ATCC BAA-44
Escherichia coli D21 = test system: Escherichia coli D21
[26] = test system: Escherichia coli ATCC 9637
[27] = test system: Pseudomonas aeruginosa ATCC 27583
[28] = test system: Pseudomonas syringae pv. tabaci 1918NCPPB
Staphylococcus capitis 1 = test system: Staphylococcus capitis 1
Pseudomonas aeruginosa = test system: Pseudomonas aeruginosa
Saccharomyces cerevisiae = test system: Saccharomyces cerevisiae
[29] = test system: Yersinia pseudotuberculosis YPIII
[30] = test system: Staphylococcus aureus ATCC 43300
[31] = test system: Candida parapsilosis ATCC 22019
[32] = test system: Streptococcus pyogenes ATCC 21547
[33] = test system: Klebsiella pneumoniae ATCC 700603
[34] = test system: Acinetobacter baumannii ATCC 19606
[35] = test system: Staphylococcus aureus ATCC 700698
[36] = test system: Pseudomonas aeruginosa ATCC BAA-427
[37] = test system: Staphylococcus aureus ATCC 700699
[38] = test system: Klebsiella pneumoniae ATCC 27736
[39] = test system: Schizosaccharomyces pombe
[40] = test system: Staphylococcus aureus Cowan 1
[41] = test system: Enterococcus faecium ATCC 700221
[42] = test system: Bacillus subtilis ATCC 6633
Cryptococcus neoformans = test system: Cryptococcus neoformans

In the case of `CC[C@H](C)[C@H](NC(=O)CN)C(=O)N[C@@H](CCCCN)C(=O)N[C@H](C(=O)N[C@@H](CCCN=C(N)N)C(=O)N[C@@H](CCCCN)C(=O)N[C@@H](CC(C)C)C(=O)N[C@@H](Cc1ccccc1)C(=O)N[C@@H](CCCCN)C(=O)N[C@@H](CCCCN)C(=O)N[C@@H](CC(C)C)C(=O)N[C@@H](CC(C)C)C(=O)N[C@@H](CCCN=C(N)N)C(N)=O)[C@@H](C)CC` [GIKIRKLFKKLLR], the MIC [1] is reported as 4.96 µM (≈ 8 µg/mL), the MIC [2] is reported as 19.8 µM (≈ 32 µg/mL) and the MIC (Escherichia coli BW25113) is reported as 4.96 µM (≈ 8 µg/mL). It also gave an MIC [3] of 19.8 µM (≈ 32 µg/mL), an MIC [4] of 19.8 µM (≈ 32 µg/mL) and an MIC [5] of 2.48 µM (≈ 4 µg/mL). It also gave an MIC [6] of 19.8 µM (≈ 32 µg/mL), an MIC [7] of 9.92 µM (≈ 16 µg/mL) and an MIC [8] of 4.96 µM (≈ 8 µg/mL). The MIC [9] was 19.8 µM (≈ 32 µg/mL), the MIC [10] was 9.92 µM (≈ 16 µg/mL) and the MIC [11] was 19.8 µM (≈ 32 µg/mL). It also gave an MIC [12] of 19.8 µM (≈ 32 µg/mL), an MIC [13] of 19.8 µM (≈ 32 µg/mL) and an MIC [14] of 2.48 µM (≈ 4 µg/mL). For the same compound, the MIC (Escherichia coli JW55034) was 4.96 µM (≈ 8 µg/mL), the MIC [15] was 19.8 µM (≈ 32 µg/mL) and the MIC [16] was 2.74 µM and 5.48 µM.
With `CC[C@H](C)[C@H](NC(=O)[C@H](CCCNC(=N)N)NC(=O)CNC(=O)[C@H](CC(C)C)NC(=O)[C@H](Cc1ccccc1)NC(=O)[C@H](CCCCN)NC(=O)[C@H](CO)NC(=O)[C@H](Cc1ccccc1)NC(=O)[C@H](Cc1c[nH]c2ccccc12)NC(=O)[C@H](CCC(N)=O)NC(=O)[C@@H](NC(=O)[C@@H](N)Cc1ccccc1)C(C)C)C(=O)N[C@@H](CC(C)C)C(N)=O` [FVQWFSKFLGRIL] the MIC [17] was 4 µM (≈ 6.56 µg/mL), the MIC [18] was 3.6 µM (≈ 5.9 µg/mL) and the MIC [19] was 1.94 µM (≈ 3.18 µg/mL). It also gave an MIC [20] of no less than 40 µM, an MIC [21] of 12 µM (≈ 19.7 µg/mL) and an MIC [22] of 6 µM (≈ 9.84 µg/mL). It also gave an MIC (Acinetobacter junii RT-4) of 3 µM (≈ 4.92 µg/mL), an MIC (Bacillus megaterium Bm11) of 1.94 µM (≈ 3.18 µg/mL) and an MIC [23] of 21.9 µM (≈ 35.9 µg/mL). The MIC [24] was 3.6 µM (≈ 5.9 µg/mL), the MIC [25] was 3.6 µM (≈ 5.9 µg/mL) and the MIC (Escherichia coli D21) was 11 µM (≈ 18 µg/mL). The MIC [26] was 12.5 µM (≈ 20.5 µg/mL), the MIC [27] was no less than 32 µM and the MIC [5] was greater than 48 µM. For the same compound, the MIC [28] was 6 µM (≈ 9.84 µg/mL), the MIC (Staphylococcus capitis 1) was 1.5 µM (≈ 2.46 µg/mL) and the MIC (Pseudomonas aeruginosa) was 64 µM (≈ 105 µg/mL). The MIC (Saccharomyces cerevisiae) was 6 µM (≈ 9.84 µg/mL), the MIC [29] was 3 µM (≈ 4.92 µg/mL) and the MIC [30] was 4 µM (≈ 6.56 µg/mL). For the same compound, the MIC [31] was 12 µM (≈ 19.7 µg/mL), the MIC [32] was 6 µM (≈ 9.84 µg/mL) and the MIC [33] was 16 µM (≈ 26.2 µg/mL). The MIC [34] was 6 µM (≈ 9.84 µg/mL), the MIC [35] was 3.6 µM (≈ 5.9 µg/mL) and the MIC [36] was 7.6 µM (≈ 12.5 µg/mL). For the same compound, the MIC [37] was 3.6 µM (≈ 5.9 µg/mL), the MIC [38] was 11.4 µM (≈ 18.7 µg/mL) and the MIC [39] was 6 µM (≈ 9.84 µg/mL). For the same compound, the MIC [40] was 2.74 µM (≈ 4.49 µg/mL), the MIC [41] was 8 µM (≈ 13.1 µg/mL) and the MIC [42] was 7.6 µM (≈ 12.5 µg/mL). It also gave an MIC (Cryptococcus neoformans) of 12 µM (≈ 19.7 µg/mL).
